In patent US20110230477A1, “COMPOUNDS, PHARMACEUTICAL COMPOSITION AND METHODS FOR USE IN TREATING METABOLIC DISORDERS” (Euroscreen S.A., priority 2008, published 2011):

Molecular target: T1, human GPR43 receptor (hGPR43) (Homo sapiens, UniProt O15552)
T1 construct: expressed in transfected cells
T1 sequence (O15552 1-330): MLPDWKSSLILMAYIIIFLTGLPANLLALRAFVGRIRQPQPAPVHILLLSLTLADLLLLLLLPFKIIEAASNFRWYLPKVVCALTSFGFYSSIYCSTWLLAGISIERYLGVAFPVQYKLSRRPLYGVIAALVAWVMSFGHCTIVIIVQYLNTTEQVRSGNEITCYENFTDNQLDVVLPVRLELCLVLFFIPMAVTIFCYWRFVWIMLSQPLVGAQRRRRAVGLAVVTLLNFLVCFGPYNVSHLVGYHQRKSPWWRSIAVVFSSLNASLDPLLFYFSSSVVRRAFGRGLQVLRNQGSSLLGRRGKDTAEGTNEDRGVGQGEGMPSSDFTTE
Assay: GTPγS binding assay (SPA method)
Assay type: biochemical
Settings: membranes expressing hGPR43; assay performed in the presence of SCFA; read-out: EC50 (nM) in GTPγ35S assay
Excerpt: The following assay can be used for determination of GPR43 activation. When a GPCR is in its active state, either as a result of ligand binding or constitutive activation, the receptor couples to a G protein and stimulates the release of GDP and subsequent binding of GTP to the G protein. The alpha subunit of the G protein-receptor complex acts as a GTPase and slowly hydrolyses the GTP to GDP, at which point the receptor normally is deactivated. Activated receptors continue to exchange GDP for GTP. […] The assay uses the ability of GPCR to stimulate [^35S]GTPγS binding to membranes expressing the relevant receptors. The assay can, therefore, be used in the direct identification method to screen candidate compounds to endogenous or not endogenous GPCR.
Membrane extracts were prepared from cells expressing the human GPR43 receptor (hGPR43) as follows: the medium was aspirated and the cells were scraped from the plates in Ca^++ and Mg^++-free Phosphate-buffered saline (PBS). The cells were then centrifuged for 3 min at 1500 g and the pellets were resuspended in buffer A (15 mM Tris-HCl pH 7.5, 2 mM MgCl2, 0.3 mM EDTA, 1 mM EGTA) and homogenized in a glass homogenizer. […] Protein content was assayed by the Folin method.
The assay was performed in the presence of SCFA, and was used to determine the activity of the compounds of the invention.
The [^35S]GTPγS assay was incubated in 20 mM HEPES pH7.4, 100 mM NaCl, 10 μg/ml saponin, 30 mM of MgCl2, 10 μM of GDP, 5 μg membrane-expressing hGPR43, 250 μg of wheatgerm agglutinin beads (Amersham, ref: RPNQ001), a range concentration of compounds (from 30 μM to 1 nM) in a final volume of 100 μl for 30 min at room temperature. The SCFA propionate was used at 1 mM final concentration as positive control. The plates were then centrifuged for 10 minutes at 2000 rpm, incubated for 2 hours at room temperature and counted for 1 min in a scintillation counter (TopCount, PerkinElmer).

Row | EC50 [nM] | SMILES
1 | 1830 | O=C(O)C[C@@H](Cc1ccccc1)C(=O)Nc1ccc(-c2ccccc2Cl)c[n+]1[O-] [Compound 196, (R)-2-(2-benzyl-3-carboxypropanamido)-5-(2-chlorophenyl)pyridine 1-oxide]
2 | 1910 | O=C(O)C[C@@H](Cc1ccccc1)C(=O)Nc1cnc(-c2ccccc2Cl)cn1 [Compound 197, (R)-3-benzyl-4-((5-(2-chlorophenyl)pyrazin-2-yl)amino)-4-oxobutanoic acid]
3 | 1380 | COCCN(C(=O)[C@@H](CC(=O)O)Cc1ccccc1)c1nc(-c2ccccc2Cl)cs1 [Compound 199, (R)-3-benzyl-4-((4-(2-chlorophenyl)thiazol-2-yl)(2-methoxyethyl)amino)-4-oxobutanoic acid]
4 | 1360 | O=C(O)C[C@@H](Cc1ccccc1)C(=O)N(CCOCc1ccccc1)c1nc(-c2ccccc2Cl)cs1 [Compound 201, (R)-3-benzyl-4-((2-(benzyloxy)ethyl)(4-(2-chlorophenyl)thiazol-2-yl)amino)-4-oxobutanoic acid]
5 | 1510 | Cc1ccc(-c2csc(NC(=O)[C@@H](CC(=O)O)Cc3ccccc3)n2)o1 [Compound 202, (R)-3-benzyl-4-((4-(5-methylfuran-2-yl)thiazol-2-yl)amino)-4-oxobutanoic acid]
6 | 1780 | O=C(O)C[C@@H](Cc1ccccc1)C(=O)Nc1cc(-c2cccc(C(F)(F)F)c2)n[nH]1 [Compound 203, (R)-3-benzyl-4-oxo-4-((3-(3-(trifluoromethyl)phenyl)-1H-pyrazol-5-yl)amino)butanoic acid]
7 | 2320 | CN(C(=O)[C@@H](CC(=O)O)Cc1ccccc1)c1nc(-c2ccccc2-c2ccc(C#N)cc2)cs1 [Compound 206, (R)-3-benzyl-4-((4-(4′-cyano-[1,1′-biphenyl]-2-yl)thiazol-2-yl)(methyl)amino)-4-oxobutanoic acid]
8 | 2910 | Cc1sc(NC(=O)[C@@H](CC(=O)O)Cc2ccccc2)c(C(N)=O)c1-c1ccc(Cl)cc1Cl [Compound 207, (3R)-3-benzyl-4-((3-carbamoyl-4-(2,4-dichlorophenyl)-5-methylthiophen-2-yl)amino)-4-oxobutanoic acid]
9 | 2470 | Cc1nc(CC(CC(=O)O)C(=O)N(C)c2nc(-c3ccccc3Cl)cs2)cs1 (stereo not drawn) [Compound 209, 4-((4-(2-chlorophenyl)thiazol-2-yl)(methyl)amino)-3-((2-methylthiazol-4-yl)methyl)-4-oxobutanoic acid]
10 | 2680 | Cc1cc(CC(CC(=O)O)C(=O)N(C)c2nc(-c3ccccc3Cl)cs2)no1 (stereo not drawn) [Compound 210, 4-((4-(2-chlorophenyl)thiazol-2-yl)(methyl)amino)-3-((5-methylisoxazol-3-yl)methyl)-4-oxobutanoic acid]
11 | 341 | CN(C(=O)[C@@H](CC(=O)O)Cc1ccccc1)c1nc(-c2ccccc2-c2cnc3c(c2)CCC(=O)N3C)cs1 [Compound 216, (R)-3-benzyl-4-(methyl(4-(2-(8-methyl-7-oxo-5,6,7,8-tetrahydro-1,8-naphthyridin-3-yl)phenyl)thiazol-2-yl)amino)-4-oxobutanoic acid]
12 | 126 | CN(C(=O)[C@@H](CC(=O)O)Cc1ccccc1)c1nc(-c2ccccc2-c2cnc3c(ccn3C)c2)cs1 [Compound 217, (R)-3-benzyl-4-(methyl(4-(2-(1-methyl-1H-pyrrolo[2,3-b]pyridin-5-yl)phenyl)thiazol-2-yl)amino)-4-oxobutanoic acid]
13 | 32 | CN(C)c1ccc(-c2ccccc2-c2csc(N(C(=O)[C@@H](CC(=O)O)CC3CCCC3)C3CC3)n2)cn1 [Compound 218, (R)-3-(cyclopentylmethyl)-4-(cyclopropyl(4-(2-(6-(dimethylamino)pyridin-3-yl)phenyl)thiazol-2-yl)amino)-4-oxobutanoic acid]
14 | 27 | COc1ncc(-c2ccccc2-c2csc(N(C(=O)[C@@H](CC(=O)O)CC3CCCC3)C3CC3)n2)cc1F [Compound 220, (R)-3-(cyclopentylmethyl)-4-(cyclopropyl(4-(2-(5-fluoro-6-methoxypyridin-3-yl)phenyl)thiazol-2-yl)amino)-4-oxobutanoic acid]

The next lines start with the molecule.

Row | SMILES | EC50 [nM]
15 | COc1ccc(-c2ccccc2-c2csc(N(C)C(=O)[C@@H](CC(=O)O)CC3CCOCC3)n2)cn1 [Compound 160, (R)-4-((4-(2-(6-methoxypyridin-3-yl)phenyl)thiazol-2-yl)(methyl)amino)-4-oxo-3-((tetrahydro-2H-pyran-4-yl)methyl)butanoic acid] | 244
16 | CN(C(=O)[C@@H](CC(=O)O)Cc1ccccc1)c1nc(-c2cccc(OC(F)F)c2)cs1 [Compound 164, (R)-3-benzyl-4-((4-(3-(difluoromethoxy)phenyl)thiazol-2-yl)(methyl)amino)-4-oxobutanoic acid] | 161
17 | O=C(O)C[C@@H](CC1CCCC1)C(=O)N(c1nc(-c2cc(Cl)ccc2Cl)cs1)C1CC1 [Compound 166, (R)-3-(cyclopentylmethyl)-4-(cyclopropyl(4-(2,5-dichlorophenyl)thiazol-2-yl)amino)-4-oxobutanoic acid] | 13
18 | CN(C(=O)[C@@H](CC(=O)O)CC1CCOCC1)c1nc(-c2cc(Cl)ccc2Cl)cs1 [Compound 168, (R)-4-((4-(2,5-dichlorophenyl)thiazol-2-yl)(methyl)amino)-4-oxo-3-((tetrahydro-2H-pyran-4-yl)methyl)butanoic acid] | 43
19 | CN(C(=O)[C@@H](CC(=O)O)CC1CCCC1)c1nc(-c2ccccc2-c2ccc(N3CCOCC3)nc2)cs1 [Compound 171, (R)-3-(cyclopentylmethyl)-4-(methyl(4-(2-(6-morpholinopyridin-3-yl)phenyl)thiazol-2-yl)amino)-4-oxobutanoic acid] | 50
20 | O=C(O)C[C@@H](CC1CCCC1)C(=O)N(CCO)c1nc(-c2cc(Cl)ccc2Cl)cs1 [Compound 172, (R)-3-(cyclopentylmethyl)-4-((4-(2,5-dichlorophenyl)thiazol-2-yl)(2-hydroxyethyl)amino)-4-oxobutanoic acid] | 355
21 | CN(C(=O)[C@@H](CC(=O)O)Cc1ccccc1)c1nc(-c2cc(Cl)cc(Cl)c2Cl)cs1 [Compound 175, (R)-3-benzyl-4-(methyl(4-(2,3,5-trichlorophenyl)thiazol-2-yl)amino)-4-oxobutanoic acid] | 57
22 | COc1ccc(-c2ccc(Cl)c(-c3csc(N(C)C(=O)[C@@H](CC(=O)O)Cc4ccccc4)n3)c2)cn1 [Compound 177, (R)-3-benzyl-4-((4-(2-chloro-5-(6-methoxypyridin-3-yl)phenyl)thiazol-2-yl)(methyl)amino)-4-oxobutanoic acid] | 127
23 | COc1ccc(-c2ccccc2-c2csc(N(C(=O)[C@@H](CC(=O)O)Cc3ccccc3)C3CC3)n2)cn1 [Compound 178, (R)-3-benzyl-4-(cyclopropyl(4-(2-(6-methoxypyridin-3-yl)phenyl)thiazol-2-yl)amino)-4-oxobutanoic acid] | 30
24 | CN1CCOc2cc(-c3ccccc3-c3csc(N(C)C(=O)[C@@H](CC(=O)O)Cc4ccccc4)n3)cnc21 [Compound 182, (R)-3-benzyl-4-(methyl(4-(2-(4-methyl-3,4-dihydro-2H-pyrido[3,2-b][1,4]oxazin-7-yl)phenyl)thiazol-2-yl)amino)-4-oxobutanoic acid] | 92
25 | O=C(O)C[C@@H](Cc1ccccc1)C(=O)N(c1nc(-c2cc(C(F)(F)F)ccc2Cl)cs1)C1CC1 [Compound 191, (R)-3-benzyl-4-((4-(2-chloro-5-(trifluoromethyl)phenyl)thiazol-2-yl)(cyclopropyl)amino)-4-oxobutanoic acid] | 37
26 | CN1CCOc2cc(-c3ccccc3-c3csc(N(C(=O)[C@@H](CC(=O)O)CC4CCCC4)C4CC4)n3)cnc21 [Compound 194, (R)-3-(cyclopentylmethyl)-4-(cyclopropyl(4-(2-(4-methyl-3,4-dihydro-2H-pyrido[3,2-b][1,4]oxazin-7-yl)phenyl)thiazol-2-yl)amino)-4-oxobutanoic acid] | 30
27 | C[C@H](c1ccccc1)[C@@H](CC(=O)O)C(=O)N(C)c1nc(-c2ccccc2Cl)cs1 [Compound 195, (3R,4S)-3-((4-(2-chlorophenyl)thiazol-2-yl)(methyl)carbamoyl)-4-phenylpentanoic acid] | 2170
